From US10350315B2, “Quinoline-3-carboxamide compounds and their use in diagnosis” (Westfaelische Wihelms-Universitaet Muenster, priority 2014, dated 2019)

Legend:
[1] = Biodistribution of Cy5.5-CES271 in healthy Balb/c mice (fluorescence intensity in organs); type: in vivo
Protocol: FIG. 16: Biodistribution of Cy5.5-CES271 in healthy Balb/c mice. The tracer was intravenously injected at a dose of 2 nmol per mouse.
The biodistribution of Cy5.5-CES271 and [^99mTc]FEB054 injected to healthy Balb/c mice was analysed by the measurement of fluorescence intensity in various organs. […] The tracer was injected at a dose of 2 nmol per mouse. […] This kinetics, that is different to previously published antibody based tracer anti-S100A9-Cy5.5^7 kinetics favors Cy5.5-CES271 for imaging of organs neighboring the liver like the lung or the heart.

S100A9 [2] = molecular target: T1, S100A9 (Mus musculus, UniProt P31725); assay: Irritant contact dermatitis (ICD) mouse model, fluorescence reflectance imaging (FRI); type: in vivo, mice; conditions: FRI 3 h after tracer application
T1 construct: from tissue; host or cells: living mice (inflamed ear, joints) and explanted mouse heart, aorta and lungs
T1 sequence (P31725 2-113 limits assumed): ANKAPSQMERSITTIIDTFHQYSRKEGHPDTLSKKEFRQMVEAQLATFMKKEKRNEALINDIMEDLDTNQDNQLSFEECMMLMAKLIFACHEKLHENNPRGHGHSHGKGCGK
Excerpt: FIG. 6: Accumulation of Cy5.5-CES271 in a mouse model of contact dermatitis (ICD). (A) FRI images showing accumulation of a quinoline-3-carboxamide compound covalently linked to a label (Cy5.5-CES271) in a mouse model of contact dermatitis of the left ear in WT (left) and S100A9 deficient (right) mice. (B) FRI images and S100A9 staining showing accumulation of a quinoline-3-carboxamide compound covalently linked to a label (Cy5.5-CES271) in a mouse model of contact dermatitis.
FIG. 21: FRI images of Cy5.5-CES271 and Cy7-CES271 in a mouse model of contact dermatitis (ICD). (A) Representative Fluorescence Reflectance images of a Cy7-CES271 and Cy5.5-aS100A9 coinjected animal.
In vivo fluorescence reflectance imaging was performed with an IVIS Spectrum small-animal imaging system (Xenogen). Images were acquired and analyzed using Living Image 4.X software (Xenogen). […] Fluorescence emission was measured by Fluorescence emission radiance per incident excitation irradiance (p/sec/cm2/sr/μW/cm2).
ICD was induced by the application of 20 μl 1% croton oil in olive oil-acetone (1:4) to the ventral surface of the left ear of mice for 24 h (n=5 per group), whereas the right ear served as a control. […] In the Cy7 channel the quantum yield is much lower compared to the Cy5.5 channel, which means that the recorded signal with Cy5.5-CES271 is higher than compared to […] (right image; FIG. 21). […]

S100A9 [3] = molecular target: T1, S100A9; assay: LPS-induced acute lung injury (ALI) mouse model, FRI of explanted lungs; type: in vivo, mice
Protocol: FIG. 22: Accumulation of Cy5.5-CES271 in a mouse model of acute lung inflammation (ALI). (A) At different time points after the intranasal application of either 10 pg or 50 pg LPS the local and systemic levels of S100A8/S100A9 are compared to control animals. Exemplary paraffin sections of inflamed and healthy lung tissue, taken at 8 h after LPS (10 pg) application were stained for S100A9-expression. Histological data of control (upper image) and lung inflammation (lower image) confirmed local expression of these proteins. […] 50 pg LPS treated mice injected with glycine saturated Cy5.5 served as perfusion controls. (C) S100A8/S100A9 serum levels of LPS treated and control animals are correlated with the measured Mean Fluorescence Intensity over the lungs (R^2=0.69; n=19; p<0.001).
LPS-induced lung inflammation was elicited via intranasal application of 50 pg or 10 pg of LPS. LPS from Escherichia coli 055:B5 was obtained from Sigma-Aldrich. Directly after the administration of LPS 2 nmol of tracer were injected intravenously. Glycine saturated Cy5.5 served as a perfusion control for CES271-Cy5.5, while Cy5.5-labelled rabbit IgG without relevant specificity served as a control for aS100A9-Cy5.5. Mice were either assigned to fluorescence mediated tomography (FMT) to fluorescence reflectance imaging (FRI). For FRI imaging, the mice were sacrificed at the indicated time points. Afterwards, BALF was obtained and the lungs were fixed with 1% low melt aggarose.
2D FRI lung imaging was performed using the Bruker FX Pro Imaging Station (Bruker Corporation). Excitation light was set to 630 nm using an appropriate bandpass filter. Emission at 700 nm was recorded using a filtre-equipped high-sensitivity (4-million-pixel) cooled charge-coupled device camera. Acquisition time was 5 s for each image.
Mice were intravenously injected with Cy5.5-labelled CES271 (CES271-Cy5.5). The animals underwent optical imaging at various time points after injection. In our blocking experiments each mouse received 2 pmol CES271 1 h before 2 nmol of CES271-Cy5.5 were injected. […]

[4] = 2 nmol per mouse i.v., 1 and 3 h after injection
[5] = between 1 h and 3 h post injection, 2 nmol i.v.

In the case of “3-ethyl-2((1E,3E,5E)-5-(3-(1-(5-ethyl-4-hydroxy-1-methyl-2-oxo-1,2-dihydroquinolin-3-yl)-1,15-dioxo-2-phenyl-5,8,11-trioxa-2,14-diazanonadecan-19-yl)-1,1-dimethyl-6,8-disulfonato-1H-benzo[e]indol-2(3H)-ylidene)penta-1,3-dien-1-yl)-1,1-dimethyl-1H-benzo[e]indol-3-ium-6,8-disulfonate [Cy5.5-CES271]”, the Route of elimination [1, 4] is reported as “mainly driven by renal excretion”, the Tissue availability [1, 4] is reported as “good tissue availability” and the “Tracer concentration in heart, spleen, muscle, brain” value ([1]; 1 h compared with 3 h post injection, 2 nmol i.v.) is reported as “at the same level”. The “Tracer concentration in kidney, liver and lung” value ([1]; 3 h vs 1 h post injection, 2 nmol i.v.) was “higher tracer concentrations”, the “Change of tracer concentration in the blood” value [1, 5] was “decrease” and the “Change of tracer concentration in the urine” value [1, 5] was “increases significantly”. For the same substance, the “Kinetics compared to antibody based tracers” value ([1]; mouse, in vivo) was “much faster kinetics”, the “Accumulation in the inflamed ear” value (S100A9 [2]; S100A9−/− deficient mice) was “not observed” and the “Accumulation in the inflamed ear” value (S100A9 [2]; WT mice, croton oil on left ear) was “significant accumulation”. For the same substance, the “Tracer accumulation in explanted lungs of LPS treated mice” value (S100A9 [3]; 3 and 6 hours after parallel LPS/tracer application, 50 pg LPS intranasal, 2 nmol i.v., n=3, p<0.01) was “specific tracer accumulation could clearly be delineated”, the “Ratio of tracer accumulation in the lung parenchyma, LPS treated mice” value (S100A9 [3]; 6 h post induction) was “up to 2.5” and the “Correlation (R^2) of S100A8/S100A9 serum levels with Mean Fluorescence Intensity over the lungs” value (S100A9 [3]; n=19, p<0.001) was 0.69.
